Assay: Chronic DIO Mouse, first study (food intake, body weight, insulin tolerance test, glucose tolerance test, plasma insulin, fed blood glucose)
Type: in vivo
Settings: DIO mice; for Insulin Tolerance Test, Blood Glucose AUC: day 19; for Intraperitoneal Glucose Tolerance Test Blood Glucose AUC: day 23
Experimental: Male 14-20-week old diet-induced obese mice were ordered from Taconic. Mice were started on a 60% fat diet (D12492, Research Diets, New Brunswick, N.J.) at 6 weeks of age. Mice were single-housed.
Test compounds were formulated in 10% PEG400 and 10% solutol. Test compounds were administered by oral gavage (5 ml kg^−1).
The test compound was formulated in 10% PEG400 and 10% solutol. DIO mice received vehicle, test compound (@ 1, 3 and 10 mg/kg) daily for 26 days. At the end of the experiment, the mice were euthanized and blood and tissues were collected.
Body weight and food weight (food intake) were monitored daily for days 1-5 and twice weekly thereafter. Fed blood glucose was measured weekly.
An insulin tolerance test (0.5 U/kg Humulin, ip) was performed on day 19 after a 4 hour food removal. Blood glucose was measured at 0, 15, 30, 60 and 120 minutes after insulin. […] Blood glucose was measured at 0, 30, 60 and 120 minutes after glucose challenge.
Blood glucose was measured from the tail vein with a Lifescan glucometer. Plasma insulin was measured with an ELISA or HTRF kit (Cisbio). Plasma parameters were measured with an Olympus clinical chemistry analyzer.
Compound #44 was tested according to the procedure as described above, with results as listed in Table BIO-4A through Table BIO4-G, below.

With `O=c1cc(NC2CCN(S(=O)(=O)C(F)(F)F)CC2)c2cc(C(c3ccc(Cl)cc3)c3ccc(Cl)cc3)ccc2[nH]1` [Compound #44, 6-(bis(4-chlorophenyl)methyl)-4-(1-(trifluoromethylsulfonyl)piperidin-4-ylamino)quinolin-2(1H)-one] the “Mean Body Weight (Std Err)” value (3 mg/kg daily, Day 8) was 41.06 (0.76) Grams, the “Mean Daily Food Intake (Std Err)” value (3 mg/kg daily, Day 8) was 2.30 (0.11) Grams and the “Mean Body Weight (Std Err)” value (3 mg/kg daily, Day 10) was 40.50 (0.74) Grams. The “Mean Daily Food Intake (Std Err)” value (3 mg/kg daily, Day 10) was 2.14 (0.15) Grams, the “Mean Body Weight (Std Err)” value (3 mg/kg daily, Day 11) was 40.15 (0.74) Grams and the “Mean Daily Food Intake (Std Err)” value (3 mg/kg daily, Day 11) was 1.95 (0.11) Grams. The “Insulin Tolerance Test, Blood Glucose AUC” value (3 mg/kg daily) was 16879.5 mg·min/dL, the “Insulin Tolerance Test Mean Blood Glucose (Std Err)” value (3 mg/kg daily, day 19, 0 min after insulin) was 189.4 (7.3) mg/dL and the “Insulin Tolerance Test Mean Blood Glucose (Std Err)” value (3 mg/kg daily, day 19, 15 min after insulin) was 178.8 (12.5) mg/dL. The “Insulin Tolerance Test Mean Blood Glucose (Std Err)” value (3 mg/kg daily, day 19, 30 min after insulin) was 121.4 (13.7) mg/dL, the “Insulin Tolerance Test Mean Blood Glucose (Std Err)” value (3 mg/kg daily, day 19, 60 min after insulin) was 119.7 (9.6) mg/dL and the “Insulin Tolerance Test Mean Blood Glucose (Std Err)” value (3 mg/kg daily, day 19, 120 min after insulin) was 155.3 (9.5) mg/dL. The “Intraperitoneal Glucose Tolerance Test Blood Glucose AUC” value (3 mg/kg daily) was 29983.1 mg·min/dL, the “Intraperitoneal Glucose Tolerance Test Mean Blood Glucose (Std Err)” value (3 mg/kg daily, day 23, 0 min after glucose) was 161.8 (5.0) mg/dL and the “Intraperitoneal Glucose Tolerance Test Mean Blood Glucose (Std Err)” value (3 mg/kg daily, day 23, 30 min after glucose) was 352.0 (22.6) mg/dL. For the same molecule, the “Intraperitoneal Glucose Tolerance Test Mean Blood Glucose (Std Err)” value (3 mg/kg daily, day 23, 60 min after glucose) was 264.6 (25.6) mg/dL, the “Intraperitoneal Glucose Tolerance Test Mean Blood Glucose (Std Err)” value (3 mg/kg daily, day 23, 120 min after glucose) was 169.6 (9.2) mg/dL and the “Fed Blood Glucose” value (10 mg/kg daily oral, Day 0, mean (Std Err)) was 161.88 (6.71) mg/dL. The “Fed Blood Glucose” value (10 mg/kg daily oral, Day 18, mean (Std Err)) was 154.00 (5.53) mg/dL, the “Plasma Insulin” value (10 mg/kg daily oral, mean (Std Err)) was 2.14 (0.3) ng/mL and the “Mean Body Weight (Std Err)” value (10 mg/kg daily, Day 1) was 43.26 (0.40) Grams. For the same molecule, the “Mean Body Weight (Std Err)” value (10 mg/kg daily, Day 2) was 42.39 (0.36) Grams, the “Mean Daily Food Intake (Std Err)” value (10 mg/kg daily, Day 2) was 2.24 (0.10) Grams and the “Mean Body Weight (Std Err)” value (10 mg/kg daily, Day 3) was 41.61 (0.41) Grams. The “Mean Daily Food Intake (Std Err)” value (10 mg/kg daily, Day 3) was 2.29 (0.16) Grams, the “Mean Body Weight (Std Err)” value (10 mg/kg daily, Day 4) was 40.76 (0.37) Grams and the “Mean Daily Food Intake (Std Err)” value (10 mg/kg daily, Day 4) was 1.70 (0.08) Grams. The “Mean Body Weight (Std Err)” value (10 mg/kg daily, Day 5) was 40.17 (0.39) Grams, the “Mean Daily Food Intake (Std Err)” value (10 mg/kg daily, Day 5) was 1.58 (0.11) Grams and the “Mean Body Weight (Std Err)” value (10 mg/kg daily, Day 8) was 38.16 (0.48) Grams. For the same molecule, the “Mean Daily Food Intake (Std Err)” value (10 mg/kg daily, Day 8) was 1.80 (0.12) Grams, the “Mean Body Weight (Std Err)” value (10 mg/kg daily, Day 10) was 37.47 (0.56) Grams and the “Mean Daily Food Intake (Std Err)” value (10 mg/kg daily, Day 10) was 2.02 (0.13) Grams. The “Mean Body Weight (Std Err)” value (10 mg/kg daily, Day 11) was 36.67 (0.55) Grams, the “Mean Daily Food Intake (Std Err)” value (10 mg/kg daily, Day 11) was 1.94 (0.11) Grams and the “Insulin Tolerance Test, Blood Glucose AUC” value (10 mg/kg daily) was 14258.3 mg·min/dL. For the same molecule, the “Insulin Tolerance Test Mean Blood Glucose (Std Err)” value (10 mg/kg daily, day 19, 0 min after insulin) was 163.5 (5.9) mg/dL, the “Insulin Tolerance Test Mean Blood Glucose (Std Err)” value (10 mg/kg daily, day 19, 15 min after insulin) was 138.4 (20.0) mg/dL and the “Insulin Tolerance Test Mean Blood Glucose (Std Err)” value (10 mg/kg daily, day 19, 30 min after insulin) was 96.2 (11.0) mg/dL. For the same molecule, the “Insulin Tolerance Test Mean Blood Glucose (Std Err)” value (10 mg/kg daily, day 19, 60 min after insulin) was 99.7 (9.7) mg/dL, the “Insulin Tolerance Test Mean Blood Glucose (Std Err)” value (10 mg/kg daily, day 19, 120 min after insulin) was 143.5 (8.3) mg/dL and the “Intraperitoneal Glucose Tolerance Test Blood Glucose AUC” value (10 mg/kg daily) was 25680.0 mg·min/dL. For the same molecule, the “Intraperitoneal Glucose Tolerance Test Mean Blood Glucose (Std Err)” value (10 mg/kg daily, day 23, 0 min after glucose) was 141.6 (6.5) mg/dL, the “Intraperitoneal Glucose Tolerance Test Mean Blood Glucose (Std Err)” value (10 mg/kg daily, day 23, 30 min after glucose) was 319.1 (26.9) mg/dL and the “Intraperitoneal Glucose Tolerance Test Mean Blood Glucose (Std Err)” value (10 mg/kg daily, day 23, 60 min after glucose) was 225.1 (20.3) mg/dL. For the same molecule, the “Intraperitoneal Glucose Tolerance Test Mean Blood Glucose (Std Err)” value (10 mg/kg daily, day 23, 120 min after glucose) was 128.4 (5.7) mg/dL.
